Assay results taken from patent US7402691B2, “Malononitrile compounds and their use as pesticides” (Sumitomo Chemical Company, Limited, priority 2001, dated 2008).
Where two headings read alike, the source gives them in different places.

Assays:
Assay type in all cases: in vivo
Musca domestica = test: Pesticidal test against Musca domestica, filter paper with sucrose bait (Test Example 6)
Experimental: Ten female adults of Musca domestics (house fly) were set free in the polyethylene cup, which was then kept covered. After 24 hours, their survival was examined to determine the mortality.

[1] = system: Leptinotarsa decemlineata; test: Pesticidal test against Leptinotarsa decemlineata, eggplant leaf dip (Test Example 5); conditions: foliar, 120 h, eggplant leaf immersed 1 minute, second-instar larvae, 5th day after release, read-out: rate of dead or moribund pests
Experimental: A leaf of eggplant was immersed in the test liquid, which had been prepared as described above, for 1 minute. After the test liquid treated the leaf of eggplant was dried with a paper towel, the leaf of eggplant was placed in a polyethylene cup of 3 cm in diameter. One second-instar larvae of Leptinotarsa decemlineata (Colorado potato beetle) were set free in the polyethylene cup, which was then kept covered and left in a greenhouse at 25° C. This test was done ten times for one compound. On the 5th day after the release of Leptinotarsa decemlineata, the number of dead pests and moribund pests was examined.

Eysarcoris lewisi = test: Pesticidal test against Eysarcoris lewisi, treated peanut seeds (Test Example 4); conditions: 168 h, peanut seeds immersed 1 minute, adults, 7th day after release, read-out: rate of dead or moribund pests
Experimental: Then, 3 to 5 seeds of peanut were immersed in the test liquid, which had been prepared as described above, for 1 minute. After the test liquid treated the seeds of peanut was dried with a paper towel, a filter paper moistened with 1 ml of water was placed on a bottom of polyethylene cup and then the seeds of peanut was placed on it. Six to eight adults of Eysarcoris lewisi were set free in the polyethylene cup, which was then kept covered and left in a greenhouse at 25° C. On the 7th day after the release of Eysarcoris lewisi, the number of dead pests and moribund pests was examined.

Ctenocephalides felis = test: Pesticidal test against Ctenocephalides felis, treated filter paper (Test Example 9); conditions: 200 mg/m^2 on filter paper (acetone solution), twenty adults, after 24 hours
Experimental: Each of the compound 8, 15, 19, 21 and 34 was dissolved in acetone to give a 0.2 ml solution of 0.114% w/w, which was uniformly treated on a filter paper having 3.8cm in diameter, and air-dried. The amount of active ingredient was 200 mg/m^2. The filter paper was filled in a lid of a 200 ml glass bottle. Twenty adult Ctenocephalides felis (cat flea) were released in the glass bottle, which was followed by covering with the lid. The glass bottle was upset for making the fleas contact with the filter paper. After 24 hours, the mortality was examined.

[2] = 500 ppm, 0.7 ml on filter paper, ten female adults, after 24 hours, read-out: mortality

| Compound | mortality at 500 ppm (Musca domestica; [2]) | other results |
| --- | --- | --- |
| N#CC(C#N)(CCC(F)=C(F)F)Cc1ccccc1 [Compound 4, 2-benzyl-2-(3,4,4-trifluoro-3-butenyl)malononitrile] | 100% | – |
| N#CC(C#N)(Cc1ccc(OC(F)(F)F)cc1)CC(F)(F)C(F)(F)F [Compound 5, 2-(2,2,3,3,3-pentafluoropropyl)-2-(4-(trifluoromethoxy)benzyl)malononitrile] | 100% | pest or weed control at 1.6 ppm [1]: > 80% |
| N#CC(C#N)(CCC(F)(F)F)Cc1c(Cl)cc(C(F)(F)F)cc1Cl [Compound 7, 2-(2,6-dichloro-4-(trifluoromethyl)benzyl)-2-(3,3,3-trifluoropropyl)malononitrile] | 100% | – |
| N#CC(C#N)(CCC(F)(F)F)Cc1ccc(Br)cc1 [Compound 9, 2-(4-bromobenzyl)-2-(3,3,3-trifluoropropyl)malononitrile] | 100% | pest or weed control at 100 ppm (Eysarcoris lewisi): 100% |
| N#CC(C#N)(CCC(F)(F)C(F)(F)F)Cc1ccc(OC(F)(F)F)cc1 [Compound 10, 2-(3,3,4,4,4-pentafluorobutyl)-2-(4-(trifluoromethoxy)benzyl)malononitrile] | 100% | pest or weed control at 1.6 ppm [1]: > 80%; pest or weed control at 100 ppm (Eysarcoris lewisi): 100% |
| N#CC(C#N)(CCC(F)F)Cc1ccc(C(F)(F)F)cc1 [Compound 11, 2-(3,3-difluoropropyl)-2-(4-(trifluoromethyl)benzyl)malononitrile] | 100% | pest or weed control at 100 ppm (Eysarcoris lewisi): 100% |
| N#CC(C#N)(CCC(F)(F)F)Cc1ccccc1 [Compound 12, 2-benzyl-2-(3,3,3-trifluoropropyl)malononitrile] | 100% | – |
| N#CC(C#N)(CCC(F)(F)F)Cc1ccc(SC(F)(F)F)cc1 [Compound 13, 2-(4-(trifluoromethylthio)benzyl)-2-(3,3,3-trifluoropropyl)malononitrile] | 100% | – |
| N#CC(C#N)(CCCF)Cc1ccc(C(F)(F)F)cc1 [Compound 14, 2-(3-fluoropropyl)-2-(4-(trifluoromethyl)benzyl)malononitrile] | 100% | pest or weed control at 100 ppm (Eysarcoris lewisi): 100% |
| N#CC(C#N)(CCC(F)(F)F)Cc1ccc(F)cc1 [Compound 16, 2-(4-fluorobenzyl)-2-(3,3,3-trifluoropropyl)malononitrile] | 100% | – |
| N#CC(C#N)(CCC(F)(F)F)Cc1ccc([N+](=O)[O-])cc1 [Compound 18, 2-(4-nitrobenzyl)-2-(3,3,3-trifluoropropyl)malononitrile] | 100% | – |
| N#CC(C#N)(CCC(F)(F)F)Cc1ccc(F)c(F)c1 [Compound 19, 2-(3,4-difluorobenzyl)-2-(3,3,3-trifluoropropyl)malononitrile] | 100% | mortality at 200 mg/m2 (Ctenocephalides felis): 100% |
| N#Cc1ccc(CC(C#N)(C#N)CCC(F)(F)F)cc1 [Compound 22, 2-(4-cyanobenzyl)-2-(3,3,3-trifluoropropyl)malononitrile] | 100% | pest or weed control at 100 ppm (Eysarcoris lewisi): 100% |
| N#CC(C#N)(CCC(F)(F)C(F)(F)F)Cc1ccc(Cl)cc1 [Compound 23, 2-(4-chlorobenzyl)-2-(3,3,4,4,4-pentafluorobutyl)malononitrile] | 100% | pest or weed control at 100 ppm (Eysarcoris lewisi): 100% |
| N#CC(C#N)(CCC(F)(F)F)Cc1ccc(I)cc1 [Compound 26, 2-(4-iodobenzyl)-2-(3,3,3-trifluoropropyl)malononitrile] | 100% | – |
| C=Cc1ccc(CC(C#N)(C#N)CCC(F)(F)F)cc1 [Compound 27, 2-(3,3,3-trifluoropropyl)-2-(4-vinylbenzyl)malononitrile] | 100% | – |
| CCc1ccc(CC(C#N)(C#N)CCC(F)(F)F)cc1 [Compound 31, 2-(4-ethylbenzyl)-2-(3,3,3-trifluoropropyl)malononitrile] | 100% | – |
| CC(C)(C)c1ccc(CC(C#N)(C#N)CCC(F)(F)F)cc1 [Compound 33, 2-(4-t-butylbenzyl)-2-(3,3,3-trifluoropropyl)malononitrile] | 100% | – |
| CC(C)c1ccc(CC(C#N)(C#N)CCC(F)(F)F)cc1 [Compound 35, 2-(4-isopropylbenzyl)-2-(3,3,3-trifluoropropyl)malononitrile] | 100% | – |
| N#CC(C#N)(CCC(F)(F)F)Cc1ccc(C(F)(F)F)c(Cl)c1 [Compound 39, 2-(3-chloro-4-(trifluoromethyl)benzyl)-2-(3,3,3-trifluoropropyl)malononitrile] | 100% | pest or weed control at 100 ppm (Eysarcoris lewisi): 100% |

| Compound | mortality at 500 ppm (Musca domestica; [2]) | other results |
| --- | --- | --- |
| CC(c1ccc(Cl)cc1)C(C#N)(C#N)CCC(F)(F)F (centres unmarked) [Compound 42, 2-(1-(4-chlorophenyl)ethyl)-2-(3,3,3-trifluoropropyl)malononitrile] | 100% | – |
| N#CC(C#N)(CCC(F)(F)F)Cc1ccc(F)cc1Cl [Compound 44, 2-(2-chloro-4-fluorobenzyl)-2-(3,3,3-trifluoropropyl)malononitrile] | 100% | – |
| Cc1cc(CC(C#N)(C#N)CCC(F)(F)F)ccc1[N+](=O)[O-] [Compound 45, 2-(3-methyl-4-nitrobenzyl)-2-(3,3,3-trifluoropropyl)malononitrile] | 100% | – |
| N#Cc1ccc(CC(C#N)(C#N)CCF)cc1 [Compound 46, 2-(4-cyanobenzyl)-2-(2-fluoroethyl)malononitrile] | 100% | – |
| N#CC(C#N)(CCC(F)=C(F)F)Cc1ccc(OC(F)(F)F)cc1 [Compound 49, 2-(3,4,4-trifluoro-3-butenyl)-2-(4-(trifluoromethoxy)benzyl)malononitrile] | 100% | – |
| N#CC(C#N)(CCC(F)(F)F)Cc1ccc(OC(F)(F)F)cc1 [Compound 50, 2-(3,3,3-trifluoropropyl)-2-(4-(trifluoromethoxy)benzyl)malononitrile] | 100% | pest or weed control at 1.6 ppm [1]: > 80%; pest or weed control at 100 ppm (Eysarcoris lewisi): 100% |
| CC(c1ccc(Cl)cc1)C(C#N)(C#N)CCF (centres unmarked) [Compound 53, 2-(1-(4-chlorophenyl)ethyl)-2-(2-fluoroethyl)malononitrile] | 100% | – |
| N#CC(C#N)(CCC(F)=C(F)F)Cc1ccc(SC(F)(F)F)cc1 [Compound 54, 2-(3,4,4-trifluoro-3-butenyl)-2-(4-(trifluoromethylthio)benzyl)malononitrile] | 100% | – |
| N#CC(C#N)(CCF)Cc1ccc(F)cc1 [Compound 59, 2-(4-fluorobenzyl)-2-(2-fluoroethyl)malononitrile] | 100% | – |
| N#CC(C#N)(CCC(F)(F)F)Cc1cc(F)cc(F)c1 [Compound 71, 2-(3,5-difluorobenzyl)-2-(3,3,3-trifluoropropyl)malononitrile] | 100% | – |
| N#CC(C#N)(Cc1ccc(C(F)(F)F)cc1)CC(F)(F)F [Compound 72, 2-(2,2,2-trifluoroethyl)-2-(4-(trifluoromethyl)benzyl)malononitrile] | 100% | – |
| N#CC(C#N)(CCC(F)=C(F)F)Cc1ccc(C(F)(F)F)cc1 [Compound 73, 2-(3,4,4-trifluoro-3-butenyl)-2-(4-(trifluoromethyl)benzyl)malononitrile] | 100% | – |
| N#CC(C#N)(CCC(F)(F)F)Cc1ccc(C(F)(F)F)cc1 [Compound 74, 2-(3,3,3-trifluoropropyl)-2-(4-(trifluoromethyl)benzyl)malononitrile] | 100% | pest or weed control at 1.6 ppm [1]: > 80%; pest or weed control at 100 ppm (Eysarcoris lewisi): 100% |
| N#CC(C#N)(Cc1ccc(C(F)(F)F)cc1)CC(F)(F)C(F)(F)F [Compound 76, 2-(2,2,3,3,3-pentafluoropropyl)-2-(4-(trifluoromethyl)benzyl)malononitrile] | 100% | pest or weed control at 1.6 ppm [1]: > 80%; pest or weed control at 100 ppm (Eysarcoris lewisi): 100% |
| N#CC(C#N)(Cc1ccc(C(F)(F)F)cc1)CC(F)(F)C(F)(F)C(F)(F)F [Compound 77, 2-(2,2,3,3,4,4,4-heptafluorobutyl)-2-(4-(trifluoromethyl)benzyl)malononitrile] | – | mortality at 500 ppm (Musca domestica; 24 h): 100% |
| N#CC(C#N)(CCCC(F)(F)F)Cc1ccc(C(F)(F)F)cc1 [Compound 78, 2-(4,4,4-trifluorobutyl)-2-(4-(trifluoromethyl)benzyl)malononitrile] | 100% | pest or weed control at 1.6 ppm [1]: > 80% |
| N#CC(C#N)(CCC(F)(F)F)Cc1cccc(F)c1 [Compound 79, 2-(3-fluorobenzyl)-2-(3,3,3-trifluoropropyl)malononitrile] | 100% | – |
| N#CC(C#N)(CCC(F)(F)F)Cc1cccc(OCc2ccccc2)c1 [Compound 88, 2-(3-(benzyloxy)benzyl)-2-(3,3,3-trifluoropropyl)malononitrile] | 100% | – |
| COc1ccc(CC(C#N)(C#N)CCC(F)(F)F)cc1 [Compound 89, 2-(4-methoxybenzyl)-2-(3,3,3-trifluoropropyl)malononitrile] | 100% | – |
